In ChEMBL document CHEMBL1152023, “Phenyl pyrrolidine analogues as potent nicotinic acetylcholine receptor (nAChR) ligands” (Bioorg Med Chem Lett, 1995):

Biological target: Neuronal acetylcholine receptor
Test: Ability to displace [3H](-)-cytisine from nicotinic acetylcholine receptor (nAChR) in a whole rat brain preparation

Ki [nM] | Structure (SMILES)
931 | CN1CCCC1c1ccc(C(F)(F)F)cc1 (configuration not stated)
707 | COc1ccc(C2CCCN2C)cc1 (configuration not stated)
227 | CN1CCCC1c1cccc(Cl)c1 (configuration not stated)
75 | CN1CCCC1c1ccc(Br)cc1 (configuration not stated)
9000 | Cc1ccccc1C1CCCN1C (configuration not stated)
719 | Cc1cccc(C2CCCN2C)c1 (configuration not stated)
164 | CN1CCCC1c1ccc(Cl)cc1 (configuration not stated)
1330 | Cc1ccc(C2CCCN2C)cc1 (configuration not stated)
68 | CN1CCCC1c1ccc(Cl)c(Cl)c1 (configuration not stated)
597 | COc1cccc(C2CCCN2C)c1 (configuration not stated)
207 | CN1CCCC1c1ccc(F)cc1 (configuration not stated)

Second part, the compound before the results:

Structure (SMILES) | Ki [nM]
Fc1cccc(C2=NCCC2)c1 | > 10000
CN1CCCC1c1ccc(F)c(F)c1 (configuration not stated) | 420
CN1CCCC1c1ccc2c(c1)OCCO2 (configuration not stated) | 1220
CN1CCCC1c1cccc(F)c1 (configuration not stated) | 399
COc1cc2c(cc1O)CCN1CC=C3C=C[C@H](OC)C[C@]321 [ERYSODINE] | 5
c1ccc(C2CCCN2)cc1 (configuration not stated) | 8700
COc1ccccc1C1CCCN1C (configuration not stated) | > 10000
Clc1ccc(C2=NCCC2)cc1 | > 10000
COc1ccc(C2CCCN2C)cc1OC (configuration not stated) | 9700
CN1CCCC1c1ccc2c(c1)OCO2 (configuration not stated) | 46
COc1cc(C2CCCN2C)ccc1O (configuration not stated) | 8250
